Organism: Rattus norvegicus
Assay: DrugMatrix - Regimen: Daily Repeat
Type: toxicity, organism-based, Sprague-Dawley
Design: regimen Daily Repeat, gender Male, age 6-8 weeks
Conditions: in vivo, po, 16 mg/kg, route oral GAVAGE, dose level Low, […]; for ABSOLUTE BASOPHIL / ABSOLUTE EOSINOPHIL / ABSOLUTE LYMPHOCYTE / ABSOLUTE MONOCYTE / ABSOLUTE SEGMENTED NEUTROPHIL / BASOPHIL / EOSINOPHIL / ERYTHROCYTE COUNT / HEMATOCRIT / HEMOGLOBIN / LEUKOCYTE COUNT / LYMPHOCYTE / MEAN CORPUSCULAR HEMOGLOBIN / MEAN CORPUSCULAR HEMOGLOBIN CONCENTRATION / MEAN CORPUSCULAR VOLUME / MONOCYTE / NEUTROPHIL / NUCLEATED RED BLOOD CELLS / PLATELET COUNT: tissue Blood; for ALANINE AMINOTRANSFERASE / ALBUMIN / ALKALINE PHOSPHATASE / ASPARTATE AMINOTRANSFERASE / BLOOD UREA NITROGEN / CARBON DIOXIDE / CHLORIDE / CHOLESTEROL / CREATINE PHOSPHOKINASE / CREATININE / GLUCOSE / LACTATE DEHYDROGENASE / LIPASE / PHOSPHORUS / POTASSIUM / SODIUM / TOTAL BILIRUBIN / TOTAL PROTEIN / URIC ACID: tissue Plasma

Q: For `O=C(O)c1cc(-c2ccc(F)cc2F)ccc1O` [DIFLUNISAL], which “ABSOLUTE BASOPHIL” value (72 h, time 3 day) is on record?
A: Its value is 0 CELLS/uL.

Q: And the “ABSOLUTE EOSINOPHIL” value (72 h, time 3 day)?
A: The value was 52.33 CELLS/uL.

Q: What about the “ABSOLUTE LYMPHOCYTE” value (72 h, time 3 day) of the same molecule?
A: Its value is 12636.67 CELLS/uL.

Q: And the “ABSOLUTE MONOCYTE” value (72 h, time 3 day)?
A: The value was 104.67 CELLS/uL.

Q: And the “ABSOLUTE SEGMENTED NEUTROPHIL” value (72 h, time 3 day)?
A: The value was 1073 CELLS/uL.

Q: What about the BASOPHIL (72 h, time 3 day) of the same molecule?
A: The BASOPHIL was 0%.

Q: And the EOSINOPHIL (72 h, time 3 day)?
A: Its EOSINOPHIL is 0.33%.

Q: And the “ERYTHROCYTE COUNT” value (72 h, time 3 day)?
A: The value was 5.44 x10E6/uL.

Q: And the HEMATOCRIT (72 h, time 3 day)?
A: The HEMATOCRIT was 33.4%.

Q: What about the HEMOGLOBIN (72 h, time 3 day) of the same molecule?
A: Its HEMOGLOBIN is 13.27 G/DL.

Q: And the “LEUKOCYTE COUNT” value (72 h, time 3 day)?
A: The value was 13.87 x10E3/uL.

Q: What about the LYMPHOCYTE (72 h, time 3 day) of the same molecule?
A: The LYMPHOCYTE was 91.33%.

Q: And the “MEAN CORPUSCULAR HEMOGLOBIN” value (72 h, time 3 day)?
A: Its value is 24.4 pg.

Q: What about the “MEAN CORPUSCULAR HEMOGLOBIN CONCENTRATION” value (72 h, time 3 day) of the same molecule?
A: The value was 39.73 G/DL.

Q: And the “MEAN CORPUSCULAR VOLUME” value (72 h, time 3 day)?
A: The value was 61.47 fL.

Q: What about the MONOCYTE (72 h, time 3 day) of the same molecule?
A: The MONOCYTE was 0.67%.

Q: What about the NEUTROPHIL (72 h, time 3 day) of the same molecule?
A: Its NEUTROPHIL is 7.67%.

Q: What about the “NUCLEATED RED BLOOD CELLS” value (72 h, time 3 day) of the same molecule?
A: Its value is 0 /100WBC.

Q: What about the “PLATELET COUNT” value (72 h, time 3 day) of the same molecule?
A: Its value is 1096.67 x10E3/uL.

Q: What about the “ALANINE AMINOTRANSFERASE” value (72 h, time 3 day) of the same molecule?
A: Its value is 65.33 u/L.

Q: And the ALBUMIN (72 h, time 3 day)?
A: Its ALBUMIN is 3.77 G/DL.

Q: What about the “ALKALINE PHOSPHATASE” value (72 h, time 3 day) of the same molecule?
A: Its value is 396.67 u/L.

Q: What about the “ASPARTATE AMINOTRANSFERASE” value (72 h, time 3 day) of the same molecule?
A: Its value is 93.33 u/L.

Q: What about the “BLOOD UREA NITROGEN” value (72 h, time 3 day) of the same molecule?
A: Its value is 10.67 mg/dL.

Q: What about the “CARBON DIOXIDE” value (72 h, time 3 day) of the same molecule?
A: Its value is 29.67 mmol/L.

Q: What about the CHLORIDE (72 h, time 3 day) of the same molecule?
A: The CHLORIDE was 100 MEQ/L.

Q: And the CHOLESTEROL (72 h, time 3 day)?
A: The CHOLESTEROL was 80.67 mg/dL.

Q: What about the “CREATINE PHOSPHOKINASE” value (72 h, time 3 day) of the same molecule?
A: Its value is 405 u/L.

Q: What about the CREATININE (72 h, time 3 day) of the same molecule?
A: Its CREATININE is 0.14 mg/dL.

Q: And the GLUCOSE (72 h, time 3 day)?
A: Its GLUCOSE is 166.67 mg/dL.

Q: And the “LACTATE DEHYDROGENASE” value (72 h, time 3 day)?
A: The value was 130 u/L.

Q: What about the LIPASE (72 h, time 3 day) of the same molecule?
A: The LIPASE was 11.33 u/L.

Q: And the PHOSPHORUS (72 h, time 3 day)?
A: The PHOSPHORUS was 11.43 mg/dL.

Q: And the POTASSIUM (72 h, time 3 day)?
A: Its POTASSIUM is 6.17 MEQ/L.

Q: What about the SODIUM (72 h, time 3 day) of the same molecule?
A: The SODIUM was 141.97 MEQ/L.

Q: What about the “TOTAL BILIRUBIN” value (72 h, time 3 day) of the same molecule?
A: Its value is 0.13 mg/dL.

Q: What about the “TOTAL PROTEIN” value (72 h, time 3 day) of the same molecule?
A: Its value is 5.47 G/DL.

Q: What about the “URIC ACID” value (72 h, time 3 day) of the same molecule?
A: Its value is 1.53 mg/dL.

Q: What about the “ABSOLUTE BASOPHIL” value (120 h, time 5 day) of the same molecule?
A: The value was 0 CELLS/uL.

Q: And the “ABSOLUTE EOSINOPHIL” value (120 h, time 5 day)?
A: The value was 84.67 CELLS/uL.

Q: What about the “ABSOLUTE LYMPHOCYTE” value (120 h, time 5 day) of the same molecule?
A: The value was 10265 CELLS/uL.

Q: What about the “ABSOLUTE MONOCYTE” value (120 h, time 5 day) of the same molecule?
A: Its value is 157.67 CELLS/uL.

Q: And the “ABSOLUTE SEGMENTED NEUTROPHIL” value (120 h, time 5 day)?
A: The value was 1026 CELLS/uL.

Q: What about the BASOPHIL (120 h, time 5 day) of the same molecule?
A: The BASOPHIL was 0%.

Q: And the EOSINOPHIL (120 h, time 5 day)?
A: The EOSINOPHIL was 0.67%.

Q: What about the “ERYTHROCYTE COUNT” value (120 h, time 5 day) of the same molecule?
A: The value was 5.28 x10E6/uL.

Q: What about the HEMATOCRIT (120 h, time 5 day) of the same molecule?
A: Its HEMATOCRIT is 33.5%.

Q: And the HEMOGLOBIN (120 h, time 5 day)?
A: Its HEMOGLOBIN is 13.6 G/DL.

Q: What about the “LEUKOCYTE COUNT” value (120 h, time 5 day) of the same molecule?
A: Its value is 11.53 x10E3/uL.

Q: And the LYMPHOCYTE (120 h, time 5 day)?
A: Its LYMPHOCYTE is 89%.

Q: And the “MEAN CORPUSCULAR HEMOGLOBIN” value (120 h, time 5 day)?
A: Its value is 25.73 pg.

Q: What about the “MEAN CORPUSCULAR HEMOGLOBIN CONCENTRATION” value (120 h, time 5 day) of the same molecule?
A: Its value is 40.63 G/DL.

Q: And the “MEAN CORPUSCULAR VOLUME” value (120 h, time 5 day)?
A: Its value is 63.37 fL.

Q: And the MONOCYTE (120 h, time 5 day)?
A: Its MONOCYTE is 1.33%.

Q: And the NEUTROPHIL (120 h, time 5 day)?
A: Its NEUTROPHIL is 9%.

Q: What about the “NUCLEATED RED BLOOD CELLS” value (120 h, time 5 day) of the same molecule?
A: The value was 0.33 /100WBC.

Q: And the “PLATELET COUNT” value (120 h, time 5 day)?
A: The value was 1107.33 x10E3/uL.

Q: What about the “ALANINE AMINOTRANSFERASE” value (120 h, time 5 day) of the same molecule?
A: Its value is 56 u/L.

Q: What about the ALBUMIN (120 h, time 5 day) of the same molecule?
A: The ALBUMIN was 4.13 G/DL.

Q: And the “ALKALINE PHOSPHATASE” value (120 h, time 5 day)?
A: The value was 404.33 u/L.

Q: What about the “ASPARTATE AMINOTRANSFERASE” value (120 h, time 5 day) of the same molecule?
A: The value was 84.33 u/L.

Q: What about the “BLOOD UREA NITROGEN” value (120 h, time 5 day) of the same molecule?
A: Its value is 16 mg/dL.

Q: What about the “CARBON DIOXIDE” value (120 h, time 5 day) of the same molecule?
A: The value was 25.33 mmol/L.

Q: And the CHLORIDE (120 h, time 5 day)?
A: The CHLORIDE was 102.33 MEQ/L.

Q: What about the CHOLESTEROL (120 h, time 5 day) of the same molecule?
A: The CHOLESTEROL was 68.67 mg/dL.

Q: What about the “CREATINE PHOSPHOKINASE” value (120 h, time 5 day) of the same molecule?
A: The value was 379.67 u/L.

Q: And the CREATININE (120 h, time 5 day)?
A: Its CREATININE is 0.23 mg/dL.

Q: And the GLUCOSE (120 h, time 5 day)?
A: The GLUCOSE was 159.33 mg/dL.

Q: What about the “LACTATE DEHYDROGENASE” value (120 h, time 5 day) of the same molecule?
A: Its value is 227 u/L.

Q: And the LIPASE (120 h, time 5 day)?
A: The LIPASE was 11.67 u/L.

Q: What about the PHOSPHORUS (120 h, time 5 day) of the same molecule?
A: The PHOSPHORUS was 11.33 mg/dL.

Q: What about the POTASSIUM (120 h, time 5 day) of the same molecule?
A: Its POTASSIUM is 6.39 MEQ/L.

Q: And the SODIUM (120 h, time 5 day)?
A: Its SODIUM is 143.53 MEQ/L.

Q: And the “TOTAL BILIRUBIN” value (120 h, time 5 day)?
A: The value was 0.17 mg/dL.

Q: And the “TOTAL PROTEIN” value (120 h, time 5 day)?
A: Its value is 5.47 G/DL.

Q: What about the “URIC ACID” value (120 h, time 5 day) of the same molecule?
A: The value was 1.67 mg/dL.
